From ChEMBL document CHEMBL4052774, “Design, synthesis, molecular modeling and anti-hyperglycemic evaluation of quinazolin-4(3H)-one derivatives as potential PPARγ and SUR agonists” (Bioorg Med Chem, 2017) come the findings set out here.

What is called IC50 is the concentration at which inhibition is half-maximal. The term EC50 denotes the concentration needed to bring the measured effect to its halfway point.

Molecules are shown by their SMILES.

The target of test [1] is T1, Peroxisome proliferator-activated receptor gamma (Homo sapiens, UniProt P37231).
T1 sequence (P37231 whole entry): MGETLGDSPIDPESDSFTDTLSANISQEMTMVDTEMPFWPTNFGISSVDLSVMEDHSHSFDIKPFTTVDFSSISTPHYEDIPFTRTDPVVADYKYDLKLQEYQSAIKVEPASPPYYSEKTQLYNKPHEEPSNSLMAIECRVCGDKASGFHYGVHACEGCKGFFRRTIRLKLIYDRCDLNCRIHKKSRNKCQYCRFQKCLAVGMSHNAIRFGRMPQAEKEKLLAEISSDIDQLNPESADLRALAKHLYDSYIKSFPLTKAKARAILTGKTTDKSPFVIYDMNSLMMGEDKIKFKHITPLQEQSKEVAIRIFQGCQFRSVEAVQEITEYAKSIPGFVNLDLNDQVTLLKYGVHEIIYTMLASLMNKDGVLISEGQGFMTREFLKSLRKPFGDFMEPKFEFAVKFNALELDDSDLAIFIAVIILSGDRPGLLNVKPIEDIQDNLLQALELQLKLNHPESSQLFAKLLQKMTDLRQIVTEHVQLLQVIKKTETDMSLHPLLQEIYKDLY
In words: Displacement of fluormone-PPARgamma green from GST-tagged PPARgamma-LBD (unknown origin) by fluorescence polarization assay. Background: In fluorescence polarisation assays a small probe gives low polarisation when free and higher when bound to something large.

Test [2] in a line: Agonist activity at SUR in Wistar rat pancreatic islets assessed as increase in insulin secretion at 5 to 20 uM incubated for 1 hr followed by glucose addition for 30 mins by quantitative sandwich enzyme immunoassay.
Test [3] relates to Rattus norvegicus. In words: Antihyperglycemic activity in streptozotocin-induced diabetic Swiss albino rat assessed as decrease in blood glucose level at 20 mg/kg, po measured up to 3 hrs post dose relative to control. The test is classed as functional. Also on record: scale not given: the % may be the effect or the level left.

As to `CCCCNC(=O)NS(=O)(=O)c1ccc(NC(=O)Cn2c(=O)c(C)nc3ccccc32)cc1`, the IC50 in test [1] (read-out: IC50) came out at 4 µM.
Consider `Cc1ccc(-n2c(SCC(=O)Nc3ccc(S(=O)(=O)NC(=O)Nc4ccccc4)cc3)nc3ccccc3c2=O)cc1`, for which the IC50 in test [1] (read-out: IC50) turned out to be 0.371 µM. Also, the EC50 in test [2] is 3.09 µM. Also, in test [3], the Activity is 33.42%.
`COc1ccc(NC(=S)NS(=O)(=O)c2ccc(CCNS(=O)(=O)c3ccc(Cl)cc3)cc2)cc1`: the IC50 in test [1] (read-out: IC50) was 33.3 µM.
As to `O=C(NC1CCCCC1)NS(=O)(=O)c1ccc(CCNS(=O)(=O)c2ccc(Cl)cc2)cc1`, the IC50 in test [1] (read-out: IC50) is 3.1 µM.
Turning to `Cc1nc2ccc(Br)cc2c(=O)n1CC(=O)Nc1ccc(S(=O)(=O)NC(=O)NC2CCCCC2)cc1`, the IC50 in test [1] (read-out: IC50) is 0.353 µM. Moreover, the EC50 in test [2] was 1.68 µM. In test [3], the Activity came out at 42.5%.
Turning to `Cc1nc2ccccc2n(CC(=O)Nc2ccc(S(=O)(=O)NC(=S)NC3CCCCC3)cc2)c1=O`, the IC50 in test [1] (read-out: IC50) turned out to be 4 µM.
For the compound `CCc1nc2ccccc2c(=O)n1CC(=O)Nc1ccc(S(=O)(=O)NC(=O)Nc2ccccc2)cc1`, the Activity in test [3] worked out at 21.55%.
As to `Cc1ccc(NC(=S)NS(=O)(=O)c2ccc(CCNS(=O)(=O)c3ccccc3)cc2)cc1`, the IC50 in test [1] (read-out: IC50) is 50 µM.
`CCCCNC(=O)NS(=O)(=O)c1ccc(NC(=O)Cn2c(C)nc3ccccc3c2=O)cc1`: the IC50 in test [1] (read-out: IC50) was found to be 0.98 µM. Also, in test [2], the EC50 is 2.91 µM. In addition, the Activity in test [3] amounted to 29.22%.
As to `COc1ccc(-n2c(SCC(=O)Nc3ccc(S(=O)(=O)NC(=O)NC4CCCCC4)cc3)nc3ccccc3c2=O)cc1`, the IC50 in test [1] (read-out: IC50) amounted to 0.35 µM. Further, the EC50 in test [2] came to 0.97 µM. Besides, in test [3], the Activity amounted to 46.42%.
Turning to `CCc1nc2ccccc2c(=O)n1CC(=O)Nc1ccc(S(=O)(=O)NC(=O)NC2CCCCC2)cc1`, the IC50 in test [1] (read-out: IC50) is 0.59 µM. Also, in test [2], the EC50 was 1.15 µM. The Activity in test [3] is recorded as 34.25%.
Turning to `CC1CCC(NC(=O)NS(=O)(=O)c2ccc(CCNS(=O)(=O)c3ccc(Br)cc3)cc2)CC1` (configuration not stated), the IC50 in test [1] (read-out: IC50) was determined as 1.6 µM.
Regarding `Cc1nc2ccccc2c(=O)n1CC(=O)Nc1ccc(S(=O)(=O)NC(=O)Nc2ccccc2)cc1`, in test [3], the Activity stood at 19.66%.
Consider `Cc1ccc(S(=O)(=O)NCCc2ccc(S(=O)(=O)NC(=S)Nc3ccc(Cl)cc3)cc2)cc1`, for which the IC50 result in test [1] is given as “Not Active”.
As to `CCCCNC(=O)NS(=O)(=O)c1ccc(NC(=O)CSc2nc3ccccc3c(=O)n2-c2ccc(C)cc2)cc1`, in test [1] (read-out: IC50), the IC50 was 0.434 µM. Moreover, the EC50 in test [2] was found to be 1.53 µM. Also, the Activity in test [3] is 37.76%.
With `COc1ccc(-n2c(SCC(=O)Nc3ccc(S(=O)(=O)NC(=O)Nc4ccccc4)cc3)nc3ccccc3c2=O)cc1`, in test [3], the Activity turned out to be 24.58%.
Turning to `CC(=O)Nc1ccc(S(=O)(=O)NCCc2ccc(S(=O)(=O)NC(=O)NC3CCC(C)CC3)cc2)cc1C` (configuration not stated), in test [1] (read-out: IC50), the IC50 came to 2.4 µM.
On to `CCC1=C(C)CN(C(=O)NCCc2ccc(S(=O)(=O)NC(=O)N[C@H]3CC[C@H](C)CC3)cc2)C1=O` [GLIMEPIRIDE], for which the EC50 in test [2] was 0.79 µM.
With `Cc1nc2ccccc2c(=O)n1CC(=O)Nc1ccc(S(=O)(=O)NC(=O)NC2CCCCC2)cc1`, the IC50 in test [1] (read-out: IC50) was 0.464 µM. For the same compound, the EC50 in test [2] was found to be 2.69 µM. Also, the Activity in test [3] is given as 38.64%.
Take `O=S(=O)(NCCc1ccc(S(=O)(=O)NC(=S)Nc2ccc(Cl)cc2)cc1)c1ccccc1`: the IC50 in test [1] (read-out: IC50) came out at 33.3 µM.
Turning to `Cc1nc2ccccc2n(CC(=O)Nc2ccc(S(=O)(=O)NC(=S)Nc3ccccc3)cc2)c1=O`, the IC50 in test [1] (read-out: IC50) was found to be 4 µM.
Regarding `O=C(NC1CCCCC1)NS(=O)(=O)c1ccc(CCNS(=O)(=O)c2ccccc2)cc1`, in test [1] (read-out: IC50), the IC50 was found to be 12.5 µM.
For `Cc1ccc(-n2c(SCC(=O)Nc3ccc(S(=O)(=O)NC(=O)NC4CCCCC4)cc3)nc3ccccc3c2=O)cc1`, the IC50 in test [1] (read-out: IC50) is 0.402 µM. Besides, in test [2], the EC50 is 1.31 µM. The Activity in test [3] stood at 40.43%.
As to `Cc1nc2ccc(Br)cc2c(=O)n1CC(=O)Nc1ccc(S(=O)(=O)NC(=O)Nc2ccccc2)cc1`, the Activity in test [3] was determined as 21.33%.
As to `CCCCNC(=O)NS(=O)(=O)c1ccc(NC(=O)CSc2nc3ccccc3c(=O)n2-c2ccc(OC)cc2)cc1`, the IC50 in test [1] (read-out: IC50) was 0.369 µM. In test [2], the EC50 worked out at 1.01 µM. Further, the Activity in test [3] was 41.23%.
For `COc1ccc(NC(=S)NS(=O)(=O)c2ccc(CCNS(=O)(=O)c3ccc(C)cc3)cc2)cc1`, the IC50 entry in test [1] is reported as “Not Active”.
In the case of `O=C(NC1CCCCC1)NS(=O)(=O)c1ccc(CCNS(=O)(=O)c2ccc(Br)cc2)cc1`, the IC50 in test [1] (read-out: IC50) worked out at 2.39 µM.
As for `CCCCNC(=O)NS(=O)(=O)c1ccc(NC(=O)Cn2c(CC)nc3ccccc3c2=O)cc1`, the IC50 in test [1] (read-out: IC50) was 0.408 µM. Further, the EC50 in test [2] came to 2.51 µM. Moreover, the Activity in test [3] amounted to 38.44%.
In the case of `CCCCNC(=O)NS(=O)(=O)c1ccc(NC(=O)Cn2c(C)nc3ccc(Br)cc3c2=O)cc1`, the Activity in test [3] was 28.25%.
Take `Cc1nc2ccccc2n(CC(=O)Nc2ccc(S(=O)(=O)NC(=O)Nc3ccccc3)cc2)c1=O`: the 50% inhibitory concentration (IC50) in test [1] (read-out: IC50) came out at 4 µM.
Regarding `Cc1ccc(NC(=S)NS(=O)(=O)c2ccc(CCNS(=O)(=O)c3ccc(C)cc3)cc2)cc1`, the IC50 entry in test [1] is listed as “Not Active”.
With `O=S(=O)(NCCc1ccc(S(=O)(=O)NC(=S)Nc2ccc(Cl)cc2)cc1)c1ccc(Cl)cc1`, the IC50 in test [1] (read-out: IC50) is 33.3 µM.
Turning to `CCCCNC(=S)NS(=O)(=O)c1ccc(NC(=O)Cn2c(=O)c(C)nc3ccccc32)cc1`, the IC50 in test [1] (read-out: IC50) was found to be 4 µM.
Same read-out and setting: the result for `CC(=O)Nc1ccc(S(=O)(=O)NCCc2ccc(S(=O)(=O)NC(=O)NC3CCC(C)CC3)cc2)cc1` (configuration not stated) reads 7.14 µM.
Still for that read-out and setting: then `CC1CCC(NC(=O)NS(=O)(=O)c2ccc(CCNS(=O)(=O)c3ccccc3)cc2)CC1` (configuration not stated), with 3.4 µM.
Take `COc1ccc(NC(=S)NS(=O)(=O)c2ccc(CCNS(=O)(=O)c3ccccc3)cc2)cc1`: the IC50 in test [1] (read-out: IC50) worked out at 1000 µM.
Still for that read-out and setting: the result for `Cc1nc2ccccc2n(CC(=O)Nc2ccc(S(=O)(=O)NC(=O)NC3CCCCC3)cc2)c1=O` reads 4 µM.
